Measurements from patent US6833372B2, “Non-peptide GnRH agents, Pharmaceutical compositions, and methods for their use” (Pfizer, Inc., priority 2002, dated 2004).

The molecules below were run against T1, human GnRH receptors (Homo sapiens, UniProt P30968) (assay: Radioligand binding: inhibition of 125I-GnRH-A binding to human GnRH receptor membranes). Conditions: HEK 293 cell membranes.
T1 construct: expressed in transfected cells; host or cells: HEK 293 cells, stably transfected; membranes
T1 sequence (P30968 1-328): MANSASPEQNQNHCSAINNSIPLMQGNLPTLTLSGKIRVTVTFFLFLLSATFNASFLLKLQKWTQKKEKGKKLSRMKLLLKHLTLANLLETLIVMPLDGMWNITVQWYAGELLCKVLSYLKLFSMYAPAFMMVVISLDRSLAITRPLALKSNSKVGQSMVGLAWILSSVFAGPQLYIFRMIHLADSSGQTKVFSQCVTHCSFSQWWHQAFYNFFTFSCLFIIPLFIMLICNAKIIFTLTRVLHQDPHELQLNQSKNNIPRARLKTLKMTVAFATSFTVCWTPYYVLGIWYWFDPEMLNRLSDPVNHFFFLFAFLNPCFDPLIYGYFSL
Method: HEK 293 cells stably transfected with mouse or human GnRH receptors as described above were grown in Dulbecco's high-glucose, modified Eagle's medium (DMEM) supplemented with 0.2% G418, 10% fetal bovine serum (FBS) and 100 U/mL penicillin/streptomycin. GH3 cells stably transfected with the rat GnRH receptor (GGH3) were provided by Dr. William Chin (Harvard Medical School, Boston, Mass.). These cells have been extensively characterized previously (Kaiser et al., 1997). The cells were grown in low glucose DMEM containing: 100U/mL penicillin/streptomycin, 0.6% G418 and 10% heat-inactivated FBS.
HEK 293 cells containing mouse or human receptors, or rat pituitaries (Pel Freez Biologicals, Rogers, Ark.) were homogenized in buffer A containing: 50 mM Tris (pH 7.4), 0.32 M sucrose, 2 mM EGTA, 1 mM PMSF, 5 μg/ml aprotinen, 5 μg/ml Pepstatin A, and 1 μg/ml leupeptin. Homogenized cells were centrifuged at 4° C. at 20,000×g for 25 minutes, re-suspended in buffer A and re-centrifuged at 4° C. at 20,000×g for an additional 25 minutes. Total membrane protein was determined with a BCA kit (Pierce, Rockford, Ill.). Membranes were stored at −70° C. at a final membrane protein concentration of approximately 5 mg/ml.
The radioiodinated agonist analog of GnRH, [des-Gly^10,D-Ala^6]GnRH ethylamide (^125I-GnRH-A), was used as the radioligand. […] The reaction mixture was vortexed and incubated for 1 minute at room temperature. After one minute, the mixture was vortexed and allowed to incubate for an additional minute. 2 ml of 0.5 M acetic acid/1% BSA was added to the reaction tube and the mixture was added to a C18 Sep-Pak cartridge. The cartridge was washed with subsequent washes of 5 ml H2O and 5 ml 0.5 M acetic acid and then eluted with 5×1 ml of 60% CH3CN/40% 0.5 M acetic acid. The eluate was diluted with 3× volume of HPLC buffer A (0.1% TFA in H2O) and loaded onto a C18 column. The iodinated product was eluted over 20-25 min with a gradient of 25-100% CH3CN containing 0.1% TFA. The radioactive fractions (750 μl/fraction) were collected into clean polypropylene tubes containing 100 μl of 10% BSA. Fractions were assessed for biological activity by radioligand binding. Specific activity of the radioligand was approximately 2200 Ci/mmol.
Membranes were diluted to 0.01-0.5 mg/ml (depending upon the species of receptor) with assay buffer containing 50 mM HEPES (pH 7.4), 1 mM EDTA, 2.5 mM MgCl2, and 0.1% BSA. Membranes (diluted to utilize similar receptor numbers between assays) were incubated with approximately 0.04-0.06 nM ^125I-GnRH-A in the presence or absence of competing agents (0.1-10,000 nM) in a total volume of 200 μl in 96-well polypropylene plates for 1 hour at room temperature. Assays were stopped by rapid filtration onto 96-well GF/C filters soaked in 0.1% polyethylenimine (PEI) utilizing a Packard 96-well cell harvester. Filters were washed three times with ice-cold PBS (50 mM NaPO4, 0.9% NaCl, 2 mM MgCl2, and 0.02% NaN3, pH 7.4). 35 μl of scintillation cocktail was added to each filter well and filters were counted on a Packard Topcount. Control dose-response curves were generated to GnRH (0.1 nM-100 nM) in each competition binding experiment. Ki values were calculated from IC50 values according to Cheng et al., Biochemical Pharmacol. 22: 3099-3108, 1973. [formula]

| SMILES | Ki |
| --- | --- |
| COc1nc(N2CCC[C@H]2C(=O)OC(C)(C)C)nc(OC)c1NC(=O)c1ccc(Cc2cc3c(cc2C)C(C)(C)OC3(C)C)o1 [Example D24, tert-Butyl 1-[4,6-dimethoxy-5-({5-[(1,1,3,3,6-pentamethyl-1,3-dihydro-2-benzofuran-5-yl)methyl]-2-furoyl}amino)pyrimidin-2-yl]prolinate] | 360 nM |
| COc1nc(N2CCN(CCC#N)CC2)nc(OC)c1NC(=O)c1ccc(Cc2cc3c(cc2C)C(C)(C)OC3(C)C)o1 [Example D26, N-{2-[4-(2-cyanoethyl)piperazin-1-yl]-4,6-dimethoxy-pyrimidin-5-yl}-5-[(1,1,3,3,6-pentamethyl-1,3-dihydro-2-benzofuran-5-yl)methyl]-2-furamide] | 84 nM |
| COc1nc(NCc2ccccc2Br)nc(OC)c1NC(=O)c1ccc(Cc2cc3c(cc2C)C(C)(C)OC3(C)C)o1 [Example D28, N-{2-[(2-Bromobenzyl)amino]-4,6-dimethoxypyrimidin-5-yl}-5-[(1,1,3,3,6-pentamethyl-1,3-dihydro-2-benzofuran-5-yl)methyl]-2-furamide] | 30 nM |
| COc1nc(N2CCN(CC(=O)N(C)C)CC2)nc(OC)c1NC(=O)c1ccc(Cc2cc3c(cc2C)C(C)(C)OC3(C)C)o1 [Example D30, N-(2-{4-[2-(Dimethylamino)-2-oxoethyl]piperazin-1-yl}4,6-dimethoxypyrimidin-5-yl)-5-[(1,1,3,3,6-pentamethyl-1,3-dihydro-2-benzofuran-5-yl)methyl]-2-furamide] | 46 nM |
| COc1nc(NC2CCCCC2C2CCCCC2)nc(OC)c1NC(=O)c1ccc(Cc2cc3c(cc2C)C(C)(C)OC3(C)C)o1 (stereo not shown) [Example D31, N-{2-[1,1′-Bi(cyclohexyl)-2-ylamino]4,6-dimethoxy-pyrimidin-5-yl}-5-[(1,1,3,3,6-pentamethyl-1,3-dihydro-2-benzofuran-2-benofuran-5-yl)methyl]-2-furamide] | 6700 nM |
| COc1nc(N[C@@H]2CCC[C@H]2OCc2ccccc2)nc(OC)c1NC(=O)c1ccc(Cc2cc3c(cc2C)C(C)(C)OC3(C)C)o1 [Example D32, N-(2-{[(1R,2R)-2-(Benzyloxy)cyclopentyl]amino}-4,6-dimethoxypyrimidin-5-yl)-5-[(1,1,3,3,6-pentamethyl-1,3-dihydro-2-benzofuran-5-yl)methyl]-2-furamide] | 22 nM |
| COc1nc(NC2CCN(Cc3ccccc3)CC2)nc(OC)c1NC(=O)c1ccc(Cc2cc3c(cc2C)C(C)(C)OC3(C)C)o1 [Example D33, N-{2-[(1-Benzylpiperidin-4-yl)amino]-4,6-dimethoxypyrimidin-5-yl}-5-[(1,1,3,3,6-pentamethyl-1,3-dihydro-2-benzofuran-5-yl)methyl]-2-furamide] | 46 nM |
| COc1cc(CNc2nc(OC)c(NC(=O)c3ccc(Cc4cc5c(cc4C)C(C)(C)OC5(C)C)o3)c(OC)n2)cc(OC)c1OC [Example D34, N-{4,6-Dimethoxy-2-[(3,4,5-trimethoxybenzyl)amino]-pyrimidin-5-yl}-5-[(1,1,3,3,6-pentamethyl-1,3-dihydro-2-benzofuran-5-yl)methyl]-2-furamide] | 14 nM |
| COc1nc(NCCNC2C3CC4CC(C3)CC2C4)nc(OC)c1NC(=O)c1ccc(Cc2cc3c(cc2C)C(C)(C)OC3(C)C)o1 (stereo not shown) [Example D35, N-(2-{[2-(2-Adamantylamino)ethyl]amino}-4,6-dimethoxypyrimidin-5-yl)-5-[(1,1,3,3,6-pentamethyl-1,3-dihydro-2-benzofuran-5-yl)methyl]-2-furamide] | 2.6 nM |
| COc1nc(NCc2ccc(C(F)(F)F)nc2)nc(OC)c1NC(=O)c1ccc(Cc2cc3c(cc2C)C(C)(C)OC3(C)C)o1 [Example D36, N-[4,6-Dimethoxy-2-({[6-(trifluoromethyl)pyridin-3-yl]-methyl}amino)pyrimidin-5-yl]-5-[(1,1,3,3,6-pentamethyl-1,3-dihydro-2-benzofuran-5-yl)methyl]-2-furamide] | 87 nM |
| COc1nc(N2CCN(c3ccccc3F)CC2)nc(OC)c1NC(=O)c1ccc(Cc2cc3c(cc2C)C(C)(C)OC3(C)C)o1 [Example D43, N-{2-[4-(2-Fluorophenyl)piperazin-1-yl]-4,6-dimethoxypyrimidin-5-yl}-5-[(1,1,3,3,6-pentamethyl-1,3-dihydro-2-benzofuran-5-yl)methyl]-2-furamide] | 160 nM |
| COc1nc(N2CCN(CCN3CCOCC3)CC2)nc(OC)c1NC(=O)c1ccc(Cc2cc3c(cc2C)C(C)(C)OC3(C)C)o1 [Example D46, N-{4,6-Dimethoxy-2-(4-(2-morpholin-4-ylethyl)piperazin-1-yl]pyrimidin-5-yl}-5-[(1,1,3,3,6-pentamethyl-1,3-dihydro-2-benzofuran-5-yl)methyl]-2-furamide] | 19 nM |

The remaining lines, values ahead:

| Ki | SMILES |
| --- | --- |
| 460 nM | C=C(C)CN(Cc1ccco1)c1nc(OC)c(NC(=O)c2ccc(Cc3cc4c(cc3C)C(C)(C)OC4(C)C)o2)c(OC)n1 [Example D25, N-{2-[(2-Furylmethyl)(2-methylprop-2-enyl)amino]-4,6-dimethoxypyrimidin-5-yl}-5-[(1,1,3,3,6-pentamethyl-1,3-dihydro-2-benzofuran-5-yl)methyl]-2-furamide] |
| 250 nM | COc1nc(N(C)CC(=O)O)nc(OC)c1NC(=O)c1ccc(Cc2cc3c(cc2C)C(C)(C)OC3(C)C)o1 [Example D27, N-[4,6-Dimethoxy-5-({5-[(1,1,3,3,6-pentamethyl-1,3-dihydro-2-benzofuran-5-yl)methyl]-2-furoyl}amino)pyrimidin-2-yl]-N-methylglycine] |
| 54 nM | COc1nc(N(C)Cc2cccc(C)n2)nc(OC)c1NC(=O)c1ccc(Cc2cc3c(cc2C)C(C)(C)OC3(C)C)o1 [Example D29, N-(4,6-Dimethoxy-2-{methyl[(6-methylpyridin-2-yl)methyl]amino}pyrimidin-5-yl)-5-[(1,1,3,3,6-pentamethyl-1,3-dihydro-2-benzofuran-5-yl)methyl]-2-furamide] |
| 41 nM | CCCCN(CCC#N)c1nc(OC)c(NC(=O)c2ccc(Cc3cc4c(cc3C)C(C)(C)OC4(C)C)o2)c(OC)n1 [Example D37, N-{2-[Butyl(2-cyanoethyl)amino]-4,6-dimethoxypyrimidin-5-yl}-5-[(1,1,3,3,6-pentamethyl-1,3-dihydro-2-benzofuran-5-yl)methyl]-2-furamide] |
| 200 nM | COc1nc(N(Cc2ccccn2)Cc2ccccn2)nc(OC)c1NC(=O)c1ccc(Cc2cc3c(cc2C)C(C)(C)OC3(C)C)o1 [Example D45, N-{2-[Bis(pyridin-2-ylmethyl)amino]-4,6-dimethoxy-pyrimidin-5-yl}-5-[(1,1,3,3,6-pentamethyl-1,3-dihydro-2-benzofuran-5-yl)methyl]-2-furamide] |
| 79 nM | COc1nc(N(CCN(C)C)Cc2ccc(F)cc2)nc(OC)c1NC(=O)c1ccc(Cc2cc3c(cc2C)C(C)(C)OC3(C)C)o1 [Example D47, N-{2-[[2-(Dimethylamino)ethyl](4-fluorobenzyl)amino]-4,6-dimethoxypyrimidin-5-yl}-5-[(1,1,3,3,6-pentamethyl-1,3-dihydro-2-benzofuran-5-yl)methyl]-2-furamide] |
| 240 nM | CCc1ccc(CN(CCCO)c2nc(OC)c(NC(=O)c3ccc(Cc4cc5c(cc4C)C(C)(C)OC5(C)C)o3)c(OC)n2)cc1 [Example D48, N-{2-[(4-Ethylbenzyl)(3-hydroxypropyl)amino]-4,6-dimethoxypyrimidin-5-yl}-5-[(1,1,3,3,6-pentamethyl-1,3-dihydro-2-benzofuran-5-yl)methyl]-2-furamide] |
